Key:
Format in all cases: cell-based, Human
HT29 cells = experiment: Inhibitory effect of compounds on HT29 cell proliferation; details: Homo sapiens, HT-29, 72 h, read-out: IC50, inhibitory activity on HT29 cell proliferation
Summary of the method: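 Adherent HT29 cells incubated with diluted compounds for 72 h; viability read by luminescence (Cell Counting-Lite 2.0, 10 min). Inhibition calculated against cell-free background and vehicle-treated cells; IC50 from four-parameter curve fit.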

A549 cells = experiment: Inhibitory effect of compounds on A549 cell proliferation; details: Homo sapiens, A549, 72 h, read-out: IC50, inhibitory activity on A549 cell proliferation
Procedure: (1) Cell plating: First, tumor cells A549 were cultured in the corresponding medium, then digested with trypsin, centrifuged and resuspended, and counted, and the cells were adjusted to an appropriate concentration for plating.
(§1) Co-incubation of the compound of the present disclosure and tumor cells: after the cells adhered to the wall, the medium was removed, and the diluted bioactive molecule (the compound of the present disclosure) was added to the wells of the above plate, and incubated for 72 h.
(§2) In vitro cell activity detection: After the incubation, 50 μL of Cell Counting-Lite™ 2.0 reagent (Vazyme/Novazyme) was added to each well, shaken and mixed well in the dark, reacted for 10 minutes, and then the detection was carried out with a microplate reader (manufacturer: BMG, Model: PHERAStar-FS) for reading. The background RLU was obtained by using cell-free medium (with Cell Counting-Lite™), and the vehicle RLU was obtained by using cell-containing medium (with Cell Counting-Lite™). Cell inhibition rate=1−(sample RLU−background RLU)/(solvent RLU−background RLU)×100%. According to the four-parameter model fitting curve, the half maximal inhibitory concentration (IC50) of the compound was calculated, and the detection results were shown in Table 4.

SKOV-3 cells = experiment: Inhibitory effect of compounds on SKOV-3 cell proliferation; details: Homo sapiens, SK-OV-3, 72 h, read-out: IC50, inhibitory activity on SKOV-3 cell proliferation
Procedure: (1) Cell plating: First, tumor cells SKOV-3 were cultured in corresponding medium, then digested with trypsin, centrifuged, resuspended, and counted, and the cells were adjusted to an appropriate concentration for plating.
as §1
as §2, with “viability” for “activity”, “8.” for “4.”

NCI-H358 cells = experiment: Inhibitory effect of compounds on NCI-H358 cell proliferation; details: Homo sapiens, NCI-H358, 72 h, read-out: IC50, inhibitory activity on NCI-H358 cell proliferation, NCI-H358 human non-small cell lung cancer cells, 72 h incubation, Cell Counting-Lite 2.0
Summary of the method: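 Adherent NCI-H358 cells were exposed to compound for 72 h, then viability was read by luminescence (Cell Counting-Lite 2.0). Inhibition calculated from RLU relative to cell-free background and vehicle wells; IC50 from a four-parameter fit.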

NCI-N87 cells = experiment: Inhibitory effect of compounds on NCI-N87 cell proliferation; details: Homo sapiens, NCI-N87, 72 h, read-out: IC50, inhibitory activity on NCI-N87 cell proliferation, NCI-N87 human gastric cancer cells, 72 h incubation, Cell Counting-Lite 2.0
Summary of the method: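 Adherent NCI-N87 cells were exposed to compound dilutions for 72 h. Viability measured by Cell Counting-Lite 2.0 luminescence, with inhibition calculated against vehicle and cell-free background RLU. IC50 from four-parameter fit.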

Hela cells = experiment: Inhibitory effect of compounds on Hela cell proliferation; details: Homo sapiens, HeLa, 72 h, read-out: IC50, inhibitory activity on Hela cell proliferation
Procedure: (1) Cell plating: First, tumor cells Hela were cultured in corresponding medium, then digested with trypsin, centrifuged, resuspended, and counted, and the cells were adjusted to an appropriate concentration for plating.
as §1
as §2, with “viability” for “activity”, “14.” for “4.”

HCC70 cells = experiment: Inhibitory effect of compounds on HCC70 cell proliferation; details: Homo sapiens, HCC70, 72 h, read-out: IC50, inhibitory activity on HCC70 cell proliferation
Procedure: (1) Cell plating: First, tumor cells HCC70 were cultured in corresponding medium, then digested with trypsin, centrifuged, resuspended, and counted, and the cells were adjusted to an appropriate concentration for plating.
as §1
as §2, with “viability” for “activity”, “16.” for “4.”

CC[C@@]1(O)C(=O)OCc2c1cc1n(c2=O)Cc2c-1nc1cc(Cl)c(C)c3c1c2[C@@H](NC(=O)C1(O)CC1)CC3 [Example 7 (2-20-A), N-((1S,9S)-5-chloro-9-ethyl-9-hydroxy-4-methyl-10,13-dioxo-2,3,9,10,13,15-hexahydro-1H,12H-benzo[de]pyrano[3′,4′:6,7]indolizino[1,2-b]quinolin-1-yl)-1-hydroxycyclopropane-1-carboxamide]
IC50 (HT29 cells): 1.29 nM | IC50 (A549 cells): 8.14 nM | IC50 (SKOV-3 cells): 6.79 nM | IC50 (NCI-H358 cells): 18.6 nM | IC50 (NCI-N87 cells): 4.54 nM | IC50 (Hela cells): 11.2 nM | IC50 (HCC70 cells): 105 nM

— US20250346606A1, “CAMPTOTHECIN COMPOUND, PREPARATION METHOD THEREFOR, AND APPLICATION THEREOF” (SICHUAN KELUN-BIOTECH BIOPHARMACEUTICAL CO., LTD., priority 2021, published 2025)
